The results in this text go back to patent publication US20080280859A1, “GEMINI VITAMIN D3 COMPOUNDS AND METHODS OF USE THEREOF” (BioXell S.p.A., priority 2005, published 2008).

The subject of data set [1] is ILT3 expression on monocyte-derived immature dendritic cells. Put plainly: ILT3 upregulation on monocyte-derived immature dendritic cells (flow cytometry). The class given is cell-based, human. To be noted: 24 hours; for upregulation of ILT3 expression: graded doses, up to 1000 nM. As to the method: Immature dendritic cells (DC) were prepared as described in Romani, N. et al., (1996) J. Immunol. Meth. 196:137). Briefly, peripheral blood mononuclear cells (PBMCs) were obtained from a buffy coat by ficoll-hypaque gradient (Pharmacia Biotec AB, Upsala, Sweden) and monocytes isolated from PBMCs by negative selected with a monocyte isolation kit (Milteny, Biotech, Bergish Gladblach, Germany). After isolation, monocytes were cultured for 6 to 7 days at a cell density of 1-2×106 in RPMI medium supplemented with 5% FetalClone I (Hyclone Laboratories, Logan, Utah) 2 mM L-glutamine, […], 1 mM sodium pyruvate and 1% nonessential amino acids, containing 800 U/ml GM-CSF (Mielogen 300, Schering-Plough) and 10 ng/ml interleukin (IL)-4 (PharMingen, San Diego, Calif.). Every other day, approximately 20% of the medium was removed and replaced by the same volume of fresh medium containing GM-CSF and IL-4.
Immunoglobulin-like transcript-3 upregulation was evaluated by flow cytometric analysis. Briefly, cells were preincubated with […] human IgG (Sigma Chemical, St. Louis, Mo.) and subsequently stained with anti-human ILT3 antibody (see, e.g., Cella, M. et al. (1997) J. Exp. Med. 185:1743) followed by anti-mouse IgG-phycoerithryn (Jackson). Cells were then analyzed with a FACScanR flow cytometer using a Cell QuestR software program (both from Beckton Dickinson, Mountain View, Calif.).

The next data set has as its system HL-60 cells. The experiment in a line: HL-60 (CD14) cell differentiation. The class given is cell-based. The note with it: Homo sapiens, HL-60 cell differentiation, read-out: HL-60(CD14) ED50.
In another data set the test system is HT 1376. The experiment in a line: Proliferation assay, bladder cancer cell line HT 1376. The class given is cell-based. The note with it: Homo sapiens, 72 h culture, CyQuant proliferation assay. The protocol:
(§1) Bladder cancer cell lines (T24, RT112, HT1376 and RT4 are human bladder cancer cell lines; NHEK are normal human keratinocytes) were obtained from the European Collection of Cell Cultures (Salisbury, UK). […] After a further 72 h of culture, cell proliferation was measured using a fluorescence-based proliferation assay kit. (CyQuant Cell Proliferation Assay Kit, Molecular Probes, Eugene, Oreg., USA). The IC50 was calculated from the regression curve of the titration data.

For another data set, the system named is RT4. Put plainly: Proliferation assay, bladder cancer cell line RT4. To be noted: Homo sapiens, RT-4; 72 h culture, CyQuant proliferation assay. The class given is cell-based. As to the method:
as §1

The subject of a further data set is NHEK. Put plainly: Proliferation assay, normal human keratinocytes NHEK. The class given is cell-based. The note with it: 72 h culture, CyQuant proliferation assay. The protocol:
as §1

The subject of the next data set is RT112. Put plainly: Proliferation assay, bladder cancer cell line RT112. The data set is classed as cell-based. To be noted: Homo sapiens, RT-112; 72 h culture, CyQuant proliferation assay. As to the method: as §1
For another data set, the system named is IFN-γ production. Put plainly: IFN-γ production in the mixed leukocyte response (MLR). The data set is classed as cell-based. The note with it: MLR of allogeneic PBMC, 5 days, ELISA; for IC50: 120 h, read-out: INF-γ IC50. The protocol:
Immature dendritic cells (DC) were prepared as described in Romani, N. et al., J. Immunol. Meth.
A general note: ELISA stands for enzyme-linked immunosorbent assay.

A short description of another data set: in vivo. To be noted: female, C57BL/6, mouse, po.
The test system of data set [2] is renin mRNA in As4.1hVDR cells. The experiment in a line: Renin suppression assay (renin mRNA, Northern blot). The note with it: 10^−10, 10^−9 and 10^−8 M, 24 hours.
A further data set addresses T1, VDR (Homo sapiens, UniProt P11473).
T1 sequence (P11473 1-427): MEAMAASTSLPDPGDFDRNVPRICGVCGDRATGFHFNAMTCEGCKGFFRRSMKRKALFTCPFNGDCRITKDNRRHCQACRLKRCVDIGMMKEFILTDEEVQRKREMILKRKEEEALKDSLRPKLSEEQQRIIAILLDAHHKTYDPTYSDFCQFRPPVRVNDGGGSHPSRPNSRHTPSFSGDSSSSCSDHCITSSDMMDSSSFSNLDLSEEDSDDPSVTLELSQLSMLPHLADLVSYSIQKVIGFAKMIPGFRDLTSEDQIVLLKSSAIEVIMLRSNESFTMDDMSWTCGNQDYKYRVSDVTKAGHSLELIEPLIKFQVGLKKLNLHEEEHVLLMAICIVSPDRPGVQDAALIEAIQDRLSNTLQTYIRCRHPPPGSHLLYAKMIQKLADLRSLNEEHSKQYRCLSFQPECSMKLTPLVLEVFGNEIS
The experiment in a line: VDR binding. The note with it: 1,25(OH)2D3 100.0.

The next data set deals with ECV. Put plainly: Proliferation assay, bladder cancer cell line ECV. The class given is cell-based. To be noted: Homo sapiens; 72 h culture, CyQuant proliferation assay.

Marks after values point to notes of the source that are not given here.

For `C=C1/C(=C\C=C2/CCC[C@]3(C)[C@@H]([C@@H](CCCC(C)(C)O)CC[C@@H](O)C(C)(C)O)CC[C@@H]23)C[C@@H](O)C[C@@H]1O` (stereo in doubt) [Compound 2, 1,25-Dihydroxy-21-(2R,3-dihydroxy-3-methyl-butyl)-20S-cholecalciferol], the “ILT3 mean fluorescence intensity” value in data set [1] (1 nM of compound) came to 260. Besides, the “upregulation of ILT3 expression” value in data set [1] (listed as 1,24R,25-trihydroxy-20R-21-(3-hydroxy-3-methylbutyl)) is “very favourable upregulation”; in data set [1] (listed as ix), “greatest upregulation of ILT3”.
What is called IC50 is the concentration that gives 50% inhibition. `C=C1/C(=C\C=C2/CCC[C@]3(C)[C@@H]([C@H](C)CCCC(C)(C)O)CC[C@@H]23)C[C@@H](O)C[C@@H]1O` [1,25(OH)2D3, reference compound]: in the data set with HL-60 cells, the EC50 is 0.00137 µM. In addition, the IC50 in the data set on HT 1376 came out at 50 µM; in the data set with RT4, 45 µM; with NHEK, 4.9 µM; with RT112 it was 19 µM; in the data set with IFN-γ production, 29 pM. Also, in the data set with IFN-γ production, the “down regulation of INF-γ (class symbol)” value is on record as “* (good down regulation of INF-γ (e.g., less than 100 IC50 pM))”.
For `C=C1/C(=C\C=C2/CCC[C@@]3(C)C2CC[C@@H]3C(CCCC(C)(C)O)CCCC(C)(C)O)CC(O)C[C@@H]1O` (some centres unmarked) [Compound 1, 1,25-Dihydroxy-21-(3-hydroxy-3-methyl-butyl)-cholecalciferol, reference compound], the MTD in “in vivo” stood at 0.003 mg/kg. The “renin suppression activity compared with 1,25(OH)2D3” value in data set [2] is on record as “comparable to that of 1,25(OH)2D3”. The EC50 with HL-60 cells stood at 0.00034 µM. Besides, on VDR, the “VDR Binding” value was 38.0**. In the data set with IFN-γ production, the IC50 was 22 pM and the “down regulation of INF-γ (class symbol)” value is “* (good down regulation of INF-γ (e.g., less than 100 IC50 pM))”.
With `C=C1/C(=C\C=C2/CCC[C@]3(C)[C@@H]([C@@H](CCCC(C)(C)O)CC[C@@H](O)C(C)(C)O)CC[C@@H]23)C[C@@H](O)C[C@@H]1O` [Compound 2, 1,25-Dihydroxy-21-(2R,3-dihydroxy-3-methyl-butyl)-20S-cholecalciferol], in the data set “in vivo”, the MTD is 0.03 mg/kg. In addition, in data set [2], the “renin suppression activity compared with 1,25(OH)2D3” value was “more potent in suppressing renin expression than 1,25(OH)2D3”. The EC50 with HL-60 cells turned out to be 0.0093 µM. For the same molecule, the half-maximal inhibitory concentration (IC50) in the data set with ECV is 69.4 µM; with RT4 it was 62 µM; in the data set on NHEK, 37.2 µM; with RT112 it was 1 µM; in the data set with IFN-γ production, 549 pM. Besides, on VDR, the “VDR Binding” value is listed as 0.95**.
In the case of `C=C1/C(=C\C=C2/CCC[C@@]3(C)C2CC[C@@H]3[C@H](CC#CC(O)(C(F)(F)F)C(F)(F)F)CCCC(C)(C)O)CC(O)C[C@@H]1O` (stereo partly drawn) [Compound 4, 1,25-Dihydroxy-21-(3-hydroxy-3-trifluoromethyl-4-trifluoro-butynyl)-20S-cholecalciferol], the “renin suppression activity compared with 1,25(OH)2D3” value in data set [2] is “more potent in suppressing renin expression than 1,25(OH)2D3”.
For `CC(C)(O)CCCC(CC#CC(O)(C(F)(F)F)C(F)(F)F)[C@H]1CCC2/C(=C/C=C3/CC(O)C[C@H](O)C3)CCC[C@@]21C` (stereo partly drawn) [Compound 5, 1,25-Dihydroxy-21-(3-hydroxy-3-trifluoromethyl-4-trifluoro-butynyl)-20R-19-nor-cholecalciferol], the “renin suppression activity compared with 1,25(OH)2D3” value in data set [2] is “comparable to that of 1,25(OH)2D3”.
For the molecule `CC(C)(O)CCC[C@@H](CC#CC(O)(C(F)(F)F)C(F)(F)F)[C@H]1CCC2/C(=C/C=C3/CC(O)C[C@H](O)C3)CCC[C@@]21C` (stereo partly drawn) [Compound 6, 1,25-Dihydroxy-21-(3-hydroxy-3-trifluoromethyl-4-trifluoro-butynyl)-20S-19-nor-cholecalciferol], the “renin suppression activity compared with 1,25(OH)2D3” value in data set [2] is on record as “more potent in suppressing renin expression than 1,25(OH)2D3”.
`C=C1/C(=C\C=C2/CCC[C@@]3(C)C2CC[C@@H]3C(CC#CC(O)(C(F)(F)F)C(F)(F)F)CCCC(C)(C)O)CC(O)C[C@@H]1O` (stereo partly drawn) [Compound 11, 1,25-Dihydroxy-21-(3-hydroxy-3-trifluoromethyl-4-trifluorobutynyl)-20R-cholecalciferol]: in data set [2], the “renin suppression activity compared with 1,25(OH)2D3” value is listed as “comparable to that of 1,25(OH)2D3”.
The molecule `CC(C)(O)CCC[C@@H](CCC(=O)C(C)(C)O)[C@H]1CC[C@H]2/C(=C/C=C3C[C@@H](O)C[C@H](O)C3)CCC[C@]12C` [Compound 12, 1,25-Dihydroxy-20S-21-(3-hydroxy-3-methyl-butyl)-24-keto-19-nor-cholecalciferol] showed an MTD in the data set “in vivo” of 0.03 mg/kg. Besides, the half-inhibitory concentration (IC50) is 2.6 µM with RT4, > 30 µM in the data set on RT112 and 2970 pM in the data set on IFN-γ production.
Take `C=C1/C(=C\C=C2/CCC[C@]3(C)[C@@H]([C@@H](CCCC(C)(C)O)CCC(=O)C(C)(C)O)CC[C@@H]23)C[C@@H](O)C[C@@H]1O` [Compound 14, 1,25-Dihydroxy-20S-21-(3-hydroxy-3-methyl-butyl)-24-keto-cholecalciferol]: the MTD in “in vivo” was 0.03 mg/kg. For the same molecule, the IC50 came out at 8.3 µM in the data set on RT4, 25.5 µM with RT112 and 350 pM in the data set with IFN-γ production.
In the case of `CC(C)(O)CCC[C@@H](CC[C@@H](O)C(C)(C)O)[C@H]1CC[C@H]2/C(=C/C=C3C[C@@H](O)C[C@H](O)C3)CCC[C@]12C` [Compound 38, 1,25-Dihydroxy-21-(2R,3-dihydroxy-3-methyl-butyl)-20S-19-nor-cholecalciferol], the MTD in the data set “in vivo” is > 0.3 mg/kg. In addition, the IC50 with HT 1376 is > 100 µM; with ECV, 99.2 µM; with RT4 it was 72 µM; with NHEK, 57 µM; with RT112, 44 µM; in the data set on IFN-γ production, 3860 pM.
Regarding `[2H]C([2H])([2H])C(O)(CCC[C@@H](CC#CC(O)(C(F)(F)F)C(F)(F)F)C1CCC2/C(=C/C=C3C[C@@H](O)C[C@H](O)C3)CCC[C@@]21C)C([2H])([2H])[2H]` (stereo partly drawn) [Compound 39, 1,25-Dihydroxy-21(3-hydroxy-3-trifluoromethyl-4-trifluoro-butynyl)-26,27-hexadeutero-19-nor-20S-cholecalciferol], the MTD in “in vivo” stood at 0.0003 mg/kg. In addition, the IC50 is 2.2 µM with RT4, 7 µM in the data set on RT112 and 62 pM in the data set with IFN-γ production.
In the case of `[2H]C([2H])([2H])C(O)(CCC[C@@H](CC#CC(O)(C(F)(F)F)C(F)(F)F)C1CCC2/C(=C/C=C3/C[C@@H](O)C[C@H](O)C3=C)CCC[C@@]21C)C([2H])([2H])[2H]` (stereo partly drawn) [Compound 40, 1,25-Dihydroxy-21-(3-hydroxy-3-trifluoromethyl-4-trifluoro-butynyl)-26,27-hexadeutero-20S-cholecalciferol], the MTD in the data set “in vivo” turned out to be 0.0001 mg/kg. The IC50 in the data set with RT4 was 2.2 µM; in the data set with RT112, 6.4 µM; in the data set on IFN-γ production, 62 pM.
On to `COc1c(C)c2c(c(O)c1C/C=C(\C)CCC(=O)OCCN1CCOCC1)C(=O)OC2` [Mycophenolate Mofetil, reference compound], for which, in [1], the “upregulation of ILT3 expression” value is on record as “fail to upregulate ILT3 expression at any concentration tested”.
